Structures can show the parent of a compound that is named as a salt. ± gives the standard deviation of the averaged measurements.
System: KHOS-NP
Test: relative viability vs DMSO control (72 h) (fraction); higher = more viable cells
Procedure, shortened: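 Sarcoma cell lines in 384-well plates, seeded to reach 80–90% confluence, were given compound after 24 h and kept 72 h at 37 °C, 5% CO2, with 0.1% DMSO vehicle and a 5 µM positive control. Relative viability came from ATPLite as percent growth, averaged over up to triplicate wells. On the rescaled values, 1 equals full and 0 equals none.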

Compound	relative viability (0.00017 µM)	relative viability (0.00051 µM)	relative viability (0.00152 µM)	relative viability (0.00457 µM)	relative viability (0.01372 µM)	relative viability (0.04115 µM)	relative viability (0.1235 µM)	relative viability (0.3704 µM)	relative viability (1.111 µM)	relative viability (3.333 µM)	relative viability (10 µM)
CC(C)(C)c1cc(NC(=O)Nc2ccc(-c3cn4c(n3)sc3cc(OCCN5CCOCC5)ccc34)cc2)no1 [Quizartinib]	1.13 ± 0.012	1.1 ± 0.027	1.1 ± 0.019	1.08 ± 0.035	1.096 ± 0.0028	1.09 ± 0.013	1.069 ± 0.0099	1.07 ± 0.034	1.05 ± 0.025	0.998 ± 0.067	0.99 ± 0.032
CNC(=O)c1ccc(-c2cnc3ncc(Cc4ccc5ncccc5c4)n3n2)cc1F [Capmatinib]	1.1 ± 0.021	1.08 ± 0.016	1.098 ± 0.0065	1.06 ± 0.023	1.094 ± 0.0089	1.1 ± 0.032	1.09 ± 0.021	1.07 ± 0.035	1.09 ± 0.023	1.09 ± 0.021	1.09 ± 0.026
CC(C)N1CCN(Cc2cnc(-c3cc(-c4cccc5[nH]ccc45)cc4[nH]ncc34)o2)CC1 [Nemiralisib]	1.01 ± 0.024	1.02 ± 0.024	1.02 ± 0.029	1.01 ± 0.03	1.01 ± 0.026	1.02 ± 0.013	1.02 ± 0.021	1.03 ± 0.018	1.04 ± 0.038	1.03 ± 0.038	1.01 ± 0.034
C[C@@H](c1ccc2nccn2c1)n1nnc2ncc(-c3cnn(C)c3)nc21 [Volitinib]	1.07 ± 0.012	1.09 ± 0.018	1.09 ± 0.013	1.091 ± 0.0095	1.08 ± 0.015	1.08 ± 0.024	1.07 ± 0.015	1.06 ± 0.038	1.04 ± 0.035	1.02 ± 0.011	0.8916 ± 0.004
COc1c(OCCCN2CCOCC2)ccc2c1N=C(NC(=O)c1cnc(N)nc1)N1CCN=C21 [Copanlisib]	1.1 ± 0.042	1.1 ± 0.029	1.11 ± 0.015	1.088 ± 0.0075	1.075 ± 0.01	1.04 ± 0.029	1.003 ± 0.01	0.907 ± 0.021	0.523 ± 0.014	0.198 ± 0.0088	0.146 ± 0.011
CCN1CCN(Cc2ccc(Nc3ncc(F)c(-c4cc(F)c5nc(C)n(C(C)C)c5c4)n3)nc2)CC1 [Abemaciclib]	1.04 ± 0.032	1.02 ± 0.029	1.02 ± 0.018	1.03 ± 0.017	1.033 ± 0.0059	1.033 ± 0.01	1.04 ± 0.014	1.055 ± 0.0084	1.01 ± 0.048	0.753 ± 0.036	0.6015 ± 0.0059
C[C@]1(O)C[C@@H](c2nc(-c3ccc4ccc(-c5ccccc5)nc4c3)c3c(N)nccn32)C1 [Linsitinib]	1.11 ± 0.025	1.09 ± 0.011	1.07 ± 0.025	1.08 ± 0.011	1.08 ± 0.026	1.08 ± 0.012	1.08 ± 0.029	1.07 ± 0.05	1.06 ± 0.064	1.02 ± 0.027	0.8696 ± 0.0082
Cc1ccc(NC(=O)c2ccc(CN3CCN(C)CC3)cc2)cc1Nc1nc(-c2cccnc2)cs1 [Masitinib]	1.05 ± 0.026	1.05 ± 0.035	1.089 ± 0.0014	1.083 ± 0.01	1.06 ± 0.028	1.09 ± 0.025	1.04 ± 0.052	1.01 ± 0.024	0.857 ± 0.018	0.612 ± 0.051	0.185 ± 0.0074
CN1CCN(c2ccc3nc(-c4c(N)c5c(F)cccc5[nH]c4=O)[nH]c3c2)CC1 [Dovitinib]	1.08 ± 0.038	1.11 ± 0.018	1.107 ± 0.0074	1.104 ± 0.007	1.13 ± 0.025	1.11 ± 0.029	1.1 ± 0.033	1.04 ± 0.07	1.03 ± 0.035	0.677 ± 0.029	0.248 ± 0.032
CC(=O)Nc1cccc(-n2c(=O)n(C3CC3)c(=O)c3c(Nc4ccc(I)cc4F)n(C)c(=O)c(C)c32)c1 [Trametinib]	1.08 ± 0.012	1.09 ± 0.014	1.05 ± 0.019	0.975 ± 0.048	0.532 ± 0.055	0.312 ± 0.013	0.278 ± 0.0054	0.275 ± 0.011	0.256 ± 0.0076	0.25 ± 0.014	0.231 ± 0.02
C=CC(=O)N1CCC[C@@H](n2nc(-c3ccc(Oc4ccccc4)cc3)c3c(N)ncnc32)C1 [Ibrutinib]	1.08 ± 0.025	1.086 ± 0.0071	1.08 ± 0.025	1.07 ± 0.013	1.05 ± 0.032	1.04 ± 0.014	1.05 ± 0.015	1.01 ± 0.045	1.034 ± 0.01	1.03 ± 0.043	0.995 ± 0.043
COc1cc2/c(=N/c3ccc(Br)cc3F)nc[nH]c2cc1OCC1CCN(C)CC1 [Vandetanib]	1.05 ± 0.032	1.036 ± 0.0034	1.04 ± 0.014	1.05 ± 0.018	1.05 ± 0.045	1.04 ± 0.029	1.05 ± 0.024	1.03 ± 0.015	1.02 ± 0.017	0.888 ± 0.044	0.551 ± 0.023
C[C@@H]1COCCN1c1cc(-c2ccnn2C)c2ccnc(-c3ccn[nH]3)c2n1	1.07 ± 0.036	1.07 ± 0.012	1.07 ± 0.025	1.06 ± 0.029	1.06 ± 0.02	1.09 ± 0.026	1 ± 0.037	0.898 ± 0.025	0.538 ± 0.042	0.377 ± 0.0063	0.281 ± 0.026
COc1cccc2c1C(=O)c1c(O)c3c(c(O)c1C2=O)C[C@@](O)(C(=O)CO)C[C@@H]3O[C@H]1C[C@H](N)[C@H](O)[C@H](C)O1 [Doxorubicin Hydrochloride]	1.09 ± 0.024	1.08 ± 0.04	1.07 ± 0.042	1.07 ± 0.0061	1.02 ± 0.062	1.04 ± 0.033	0.814 ± 0.038	0.475 ± 0.029	0.266 ± 0.014	0.0899 ± 0.0038	0.058 ± 0.0052
O=C(Nc1cnn2ccc(N3CCC[C@@H]3c3cc(F)ccc3F)nc12)N1CC[C@H](O)C1 [Larotrectinib]	1.1 ± 0.025	1.09 ± 0.013	1.08 ± 0.016	1.09 ± 0.024	1.1 ± 0.016	1.06 ± 0.03	1.05 ± 0.053	1.08 ± 0.021	1.05 ± 0.027	1.02 ± 0.014	1.01 ± 0.038
Cc1cc(C)c(/C=C2\C(=O)Nc3ccccc32)[nH]1 [Semaxanib]	1.04 ± 0.035	1.04 ± 0.025	1.05 ± 0.028	1.05 ± 0.037	1.03 ± 0.041	1.05 ± 0.02	1.04 ± 0.03	1 ± 0.027	0.989 ± 0.027	1.002 ± 0.008	0.927 ± 0.025
CC1(C)CNc2cc(NC(=O)c3cccnc3NCc3ccncc3)ccc21 [Motesanib]	1.03 ± 0.03	1.04 ± 0.021	1.03 ± 0.021	1.01 ± 0.028	1.02 ± 0.037	1.02 ± 0.023	1.03 ± 0.013	1.03 ± 0.021	1 ± 0.021	0.973 ± 0.024	0.882 ± 0.048
Cc1nc(-c2cn3c(n2)-c2ccc(-c4cnn(C(C)(C)C(N)=O)c4)cc2OCC3)n(C(C)C)n1 [Taselisib]	1.04 ± 0.023	1.039 ± 0.003	1.03 ± 0.03	1.02 ± 0.018	1.042 ± 0.0077	1.01 ± 0.023	1.02 ± 0.02	1.03 ± 0.022	0.99 ± 0.035	0.948 ± 0.011	0.688 ± 0.0095
CC(C)NC(=O)C1CCC(n2c(NC(=O)c3ccc(F)cc3)nc3ccc(CN4CCC(C(C)(C)O)CC4)cc32)CC1 (centres undefined) [Belizatinib]	1.09 ± 0.025	1.095 ± 0.005	1.109 ± 0.0095	1.1 ± 0.02	1.104 ± 0.011	1.1 ± 0.021	1.1 ± 0.016	1.09 ± 0.028	1.09 ± 0.033	0.996 ± 0.059	0.654 ± 0.033

— the supplement of paper PMC10883282
